The target in this experiment is T1, recombinant human GluN1/GluN2A receptor (Homo sapiens, UniProt Q05586+Q12879).
T1 construct: expressed in transfected cells; host or cells: HEK293, tetracycline-inducible expression
Description: Whole-cell patch clamp of mammalian cells (Syncropatch 384i), NMDA modulation. The experiment is classed as cell-based. The following applies: HEK293 cells, human GluN1/GluN2A, glutamate 1 μM / glycine 100 μM, -80 mV, peak amplitude increase; for pEC50: read-out: EC50. The text has this:
Whole-Cell Patch Clamp of Mammalian Cells (Syncropatch 384i (Nanion Technologies))
Whole-cell patch clamp electrophysiology was used to investigate the effects of compounds on GluN1/GluN2A N-methyl-D-aspartate (NMDA) glutamate receptors expressed in mammalian cells.
Human embryonic kidney (HEK293) cells expressing the recombinant human GluN1/GluN2A receptor under the control of a tetracycline-inducible expression system were used. Cells were maintained in Dulbecco's Modified Eagle's Medium (DMEM) with 1% glutamine, 10% Tetracycline System Approved fetal bovine serum (FBS), and NMDA inhibitors. Cells were cultured in a humidified 5% CO2 incubator at 37° C. Cells were induced with 50 ng/ml tetracycline 18-24 hours prior to testing. A cocktail of channel blockers was added to the media to prevent cell death.
Cells were 60-80% confluent at the time of harvest. Cells were detached from the flask TrypLE Enzyme Express (Thermo Fisher) at 37° C., and then cold extracellular solution was added to the flask, followed by incubation at 4° C. and then trituration of the cells. The cell solution was then placed on a shaker on the Syncropatch platform at 10° C. with a shake speed of a minimum 200 rpm for at least 30 minutes prior to testing.
Extracellular (EC) solution (in mM) —140 NaCl, 4 KCl, 5 CaCl2, 10 HEPES, 5 Glucose, pH 7.4 with NaOH. All external solutions contained 0.2% DMSO and 0.01% Kolliphor® EL (C5135, Sigma) throughout the experiment.
Intracellular (IC) solution (in mM) —120 CsF, 10 mM EGTA, 10 NaCl, 10 HEPES, 4 NaATP, 2 MgCl2, pH 7.2 with CsOH.
First, the DMSO Master Plate was prepared, in which the DMSO stock of each test compound was serially diluted in 100% DMSO to 1000× the final assay concentration. Immediately prior to assay testing, the compounds were diluted 1:100 by transferring solutions from the DMSO Mast Plate to the Intermediate Plate pre-filled with EC solution using a Biomek FX automated liquid handling system. Compounds were then diluted further with extracellular solution into two pre-incubation plates—1) compound from the Intermediate Plate was mixed with EC solution at a 1:5 dilution to create a 2× Compound Pre-Incubation Plate which was diluted a further 1:2 when added to the Syncropatch for the initial compound pre-incubation. And 2) compound from the Intermediate plate was mixed with EC solution at a 1:10 Dilution to create the 1× Compound Pre-Incubation Plate, which was used for subsequent compound pre-incubations. Finally, a Compound+Agonist Plate was prepared by mixing compound from the 2× Compound Pre-Incubation Plate with 2× concentration of co-agonists in a 1:1 ratio.
Each experiment sequentially included cell catching, sealing, whole-cell formation, liquid application, recording and data acquisition. Whole-cell patch clamp recordings were performed using multi-hole high resistance chips on the SyncroPatch 384i (Nanion Technologies). A steady-state voltage pulse at -80 mV was applied throughout the assay and a 10 second recording window was triggered around 1 second prior to application of co-agonists. Currents were leak corrected and sampled at 5 kHz.
A fast application was used, in which 5 μl co-agonist was rapidly applied at a speed of 30 μl/s and then rapidly removed from the well. To test for modulator activity, the co-agonists glutamate (1 μM) and glycine (100 μM) were applied three times to show activation reproducibility, followed by 120 seconds pre-incubation of test compound alone. The test compound was then re-applied in the presence of co-agonists two times. This was followed by application of the agonist alone, although test compound may not be fully washed from the well prior to this step. Finally, a saturating concentration of co-agonists (glutamate 100 μM/glycine 100 μM) was applied.
The voltage protocol generation data collection and analysis were performed on PatchControll384 and DataControll384. […]

pEC50: −log10 of the molar value. Where two headings read alike, the source gives them in different places. Bounds are passed on as bounds.

The values that follow come from US20240368214A1, “POSITIVE NMDA-MODULATING COMPOUNDS AND METHODS OF USE THEREOF” (SAGE THERAPEUTICS, INC., priority 2021, published 2024).

T1 sequence (Q12879 23-1464, other chains not shown): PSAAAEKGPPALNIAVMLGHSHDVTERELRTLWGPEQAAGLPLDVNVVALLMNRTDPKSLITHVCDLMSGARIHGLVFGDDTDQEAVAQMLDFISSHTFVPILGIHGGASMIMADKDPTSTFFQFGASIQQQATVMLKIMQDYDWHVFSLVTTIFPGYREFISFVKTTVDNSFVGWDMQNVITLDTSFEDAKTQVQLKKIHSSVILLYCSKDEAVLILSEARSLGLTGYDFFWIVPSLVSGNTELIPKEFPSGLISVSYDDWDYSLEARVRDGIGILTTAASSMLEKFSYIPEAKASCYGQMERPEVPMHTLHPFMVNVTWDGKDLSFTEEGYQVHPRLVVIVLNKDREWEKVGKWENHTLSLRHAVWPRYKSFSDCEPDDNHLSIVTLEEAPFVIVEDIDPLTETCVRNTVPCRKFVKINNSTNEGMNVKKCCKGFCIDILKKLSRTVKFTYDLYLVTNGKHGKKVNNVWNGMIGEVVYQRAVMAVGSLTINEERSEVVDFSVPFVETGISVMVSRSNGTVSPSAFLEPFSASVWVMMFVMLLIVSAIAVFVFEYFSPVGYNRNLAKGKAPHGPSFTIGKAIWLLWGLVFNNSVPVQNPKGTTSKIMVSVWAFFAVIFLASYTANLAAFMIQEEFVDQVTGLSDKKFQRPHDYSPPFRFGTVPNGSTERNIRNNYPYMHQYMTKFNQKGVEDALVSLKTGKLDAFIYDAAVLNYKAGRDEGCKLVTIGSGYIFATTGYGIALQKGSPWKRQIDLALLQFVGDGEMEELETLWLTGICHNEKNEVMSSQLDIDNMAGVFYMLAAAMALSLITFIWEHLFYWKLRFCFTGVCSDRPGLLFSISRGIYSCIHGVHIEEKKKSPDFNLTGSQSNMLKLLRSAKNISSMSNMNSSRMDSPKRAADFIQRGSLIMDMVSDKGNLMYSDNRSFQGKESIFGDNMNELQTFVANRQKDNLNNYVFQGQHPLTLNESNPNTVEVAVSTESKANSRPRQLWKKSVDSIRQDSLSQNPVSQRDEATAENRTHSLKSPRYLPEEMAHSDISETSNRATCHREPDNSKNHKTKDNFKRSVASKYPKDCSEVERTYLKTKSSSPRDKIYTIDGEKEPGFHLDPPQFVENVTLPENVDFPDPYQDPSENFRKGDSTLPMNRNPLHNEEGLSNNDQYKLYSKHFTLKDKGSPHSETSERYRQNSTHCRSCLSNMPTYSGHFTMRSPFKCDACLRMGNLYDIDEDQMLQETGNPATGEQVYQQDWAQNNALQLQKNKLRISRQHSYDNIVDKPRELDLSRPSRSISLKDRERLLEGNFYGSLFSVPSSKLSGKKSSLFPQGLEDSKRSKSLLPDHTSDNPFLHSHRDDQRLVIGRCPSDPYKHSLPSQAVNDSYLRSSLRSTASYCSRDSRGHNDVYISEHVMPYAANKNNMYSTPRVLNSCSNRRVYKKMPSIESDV

Broadly, the pEC50 is the EC50 on a negative log10 scale, so that one unit is a factor of ten. Take `CC[C@]1(O)CC[C@@]2(C)[C@@H](CC[C@@H]3[C@@H]2CC[C@]2(C)[C@@H](C(CC[C@@H](O)C(C)C)C(F)(F)F)CC[C@@H]32)C1` (stereo in doubt) [Compound A-19, (3S,5S,8R,9S,10S,13S,14S,17R)-3-ethyl-10,13-dimethyl-17-((2R,5R)-1,1,1-trifluoro-5-hydroxy-6-methylheptan-2-yl)hexadecahydro-1H-cyclopenta[a]phenanthren-3-ol]: the negative logarithm of the EC50 (pEC50) (Table A-2) is below 6.00.

The term Emax denotes the size of the effect at its maximum, as opposed to the concentration needed. For the compound `CCC1(O)CCC[C@@]2(C)[C@@H](CC[C@@H]3[C@@H]2CC[C@]2(C)[C@@H]([C@H](C)CC[C@](C)(O)C(F)(F)F)CC[C@@H]32)C1` (stereo in doubt) [Compound D-8, (1R,3aS,3bR,5aS,7S,10aS,10bS,12aR)-7-ethyl-10a,12a-dimethyl-1-((2R,5S)-6,6,6-trifluoro-5-hydroxy-5-methylhexan-2-yl)octadecahydrocyclohepta[a]cyclopenta[f]naphthalen-7-ol], where the note is “Table D-2”, the Emax is 100 to 200% and the pEC50 is below 6.00.

For the compound `CC[C@H](CCCC(C)(C)O)[C@H]1CC[C@H]2[C@@H]3CC[C@H]4C[C@](O)(CC)CC[C@]4(C)[C@H]3CC[C@]12C` [Compound A-1, (3S,5S,8R,9S,10S,13R,14S,17R)-3-ethyl-17-((R)-7-hydroxy-7-methyloctan-3-yl)-10,13-dimethylhexadecahydro-1H-cyclopenta[a]phenanthren-3-ol], under “Table A-2”, the maximal effect (Emax) was in the range of 100 to 200% and the pEC50 was 7.00 to 9.00.

On to `CC[C@H](CC[C@@](C)(O)C(F)(F)F)[C@H]1CC[C@H]2[C@@H]3CC[C@H]4C[C@](O)(CC)CC[C@]4(C)[C@H]3CC[C@]12C` [Compound A-2, (3S,5S,8R,9S,10S,13R,14S,17R)-3-ethyl-10,13-dimethyl-17-((3R,6R)-7,7,7-trifluoro-6-hydroxy-6-methylheptan-3-yl)hexadecahydro-1H-cyclopenta[a]phenanthren-3-ol], for which, for the setting “Table A-2”, the Emax was 100 to 200% and the negative-log EC50 (pEC50) was 6.00 to 6.30.

As for `CC[C@H](CC[C@](C)(O)C(F)(F)F)[C@H]1CC[C@H]2[C@@H]3CC[C@H]4C[C@](O)(CC)CC[C@]4(C)[C@H]3CC[C@]12C` [Compound A-3, (3S,5S,8R,9S,10S,13R,14S,17R)-3-ethyl-10,13-dimethyl-17-((3R,6S)-7,7,7-trifluoro-6-hydroxy-6-methylheptan-3-yl)hexadecahydro-1H-cyclopenta[a]phenanthren-3-ol], under “Table A-2”, the Emax was above 200% and the negative logarithm of the EC50 (pEC50) was 7.00 to 9.00.

As to `CC[C@]1(O)CC[C@@]2(C)[C@@H](CC[C@@H]3[C@@H]2CC[C@]2(C)[C@@H]([C@H](F)CC[C@H](O)C(C)C)CC[C@@H]32)C1` [Compound A-4, (3S,5S,8R,9S,10S,13S,14S,17S)-3-ethyl-17-((1R,4S)-1-fluoro-4-hydroxy-5-methylhexyl)-10,13-dimethylhexadecahydro-1H-cyclopenta[a]phenanthren-3-ol], for the setting “Table A-2”, the Emax was above 200% and the negative-log EC50 (pEC50) was 7.00 to 9.00.

Take `CC[C@]1(O)CC[C@@]2(C)[C@@H](CC[C@@H]3[C@@H]2CC[C@]2(C)[C@@H]([C@H](F)CC[C@@H](O)C(C)C)CC[C@@H]32)C1` [Compound A-5, (3S,5S,8R,9S,10S,13S,14S,17S)-3-ethyl-17-((1R,4R)-1-fluoro-4-hydroxy-5-methylhexyl)-10,13-dimethylhexadecahydro-1H-cyclopenta[a]phenanthren-3-ol]: where the note is “Table A-2”, the maximum response (Emax) was above 200% and the pEC50 was 7.00 to 9.00.

Take `CC[C@]1(O)CC[C@@]2(C)[C@@H](CC[C@@H]3[C@@H]2CC[C@]2(C)[C@@H]([C@@H](CC[C@@H](O)C(C)C)OC)CC[C@@H]32)C1` [Compound A-6, (3S,5S,8R,9S,10S,13S,14S,17S)-3-ethyl-17-((1R,4R)-4-hydroxy-1-methoxy-5-methylhexyl)-10,13-dimethylhexadecahydro-1H-cyclopenta[a]phenanthren-3-ol]: for the setting “Table A-2”, the maximal response (Emax) was above 200% and the pEC50 was 6.30 to 7.00.

Turning to `CC[C@]1(O)CC[C@@]2(C)[C@@H](CC[C@@H]3[C@@H]2CC[C@]2(C)[C@@H]([C@@H](CC[C@H](O)C(C)C)OC)CC[C@@H]32)C1` [Compound A-7, (3S,5S,8R,9S,10S,13S,14S,17S)-3-ethyl-17-((1R,4S)-4-hydroxy-1-methoxy-5-methylhexyl)-10,13-dimethylhexadecahydro-1H-cyclopenta[a]phenanthren-3-ol], under “Table A-2”, the maximum response (Emax) is above 200% and the pEC50 is 6.30 to 7.00.

On to `CC[C@]1(O)CC[C@@]2(C)[C@@H](CC[C@@H]3[C@@H]2CC[C@]2(C)[C@@H](C(C#N)CCCC(C)(C)O)CC[C@@H]32)C1` (stereo partly drawn) [Compound A-8, 2-((3S,5S,8R,9S,10S,13S,14S,17R)-3-ethyl-3-hydroxy-10,13-dimethylhexadecahydro-1H-cyclopenta[a]phenanthren-17-yl)-6-hydroxy-6-methylheptanenitrile], for which, for the setting “Table A-2”, the Emax lay in the range of 100 to 200% and the pEC50 is 7.00 to 9.00.

With `CC[C@]1(O)CC[C@@]2(C)[C@@H](CC[C@@H]3[C@@H]2CC[C@]2(C)[C@@H]([C@H](C#N)CCCC(C)(C)O)CC[C@@H]32)C1` [Compound A-9, (R)-2-((3S,5S,8R,9S,10S,13S,14S,17R)-3-ethyl-3-hydroxy-10,13-dimethylhexadecahydro-1H-cyclopenta[a]phenanthren-17-yl)-6-hydroxy-6-methylheptanenitrile], for the setting “Table A-2”, the Emax was above 200% and the pEC50 was 7.00 to 9.00.

In the case of `CC[C@]1(O)CC[C@@]2(C)[C@@H](CC[C@@H]3[C@@H]2CC[C@]2(C)[C@@H]([C@@H](C#N)CCCC(C)(C)O)CC[C@@H]32)C1` [Compound A-9a], where the note is “Table A-2”, the Emax is below 100% and the negative-log EC50 (pEC50) was 7.00 to 9.00.

On to `CC[C@]1(O)CC[C@@]2(C)[C@@H](CC[C@@H]3[C@@H]2CC[C@]2(C)[C@@H]([C@@H](CCCC(C)(C)O)OC)CC[C@@H]32)C1` [Compound A-10, (3S,5S,8R,9S,10S,13S,14S,17S)-3-ethyl-17-((R)-5-hydroxy-1-methoxy-5-methylhexyl)-10,13-dimethylhexadecahydro-1H-cyclopenta[a]phenanthren-3-ol], for which, for the setting “Table A-2”, the maximum response (Emax) was 100 to 200% and the negative logarithm of the EC50 (pEC50) was 6.30 to 7.00.

On to `CCO[C@H](CC[C@H](O)C(C)C)[C@H]1CC[C@H]2[C@@H]3CC[C@H]4C[C@](O)(CC)CC[C@]4(C)[C@H]3CC[C@]12C` [Compound A-11, (3S,5S,8R,9S,10S,13S,14S,17S)-17-((1R,4S)-1-ethoxy-4-hydroxy-5-methylhexyl)-3-ethyl-10,13-dimethylhexadecahydro-1H-cyclopenta[a]phenanthren-3-ol], for which the pEC50 (Table A-2) was below 6.00.

Consider `CCO[C@H](CC[C@H](O)C(C)C)[C@H]1CC[C@H]2[C@@H]3CC[C@@H]4C[C@](O)(CC)CC[C@]4(C)[C@H]3CC[C@]12C` [Compound A-11a, (3S,5R,8R,9S,10S,13S,14S,17S)-17-((1R,4S)-1-ethoxy-4-hydroxy-5-methylhexyl)-3-ethyl-10,13-dimethylhexadecahydro-1H-cyclopenta[a]phenanthren-3-ol], for which, under “Table A-2”, the maximal response (Emax) is below 100% and the pEC50 was below 6.00.
